Results published in patent publication US20180327367A1, “MACROCYCLIC BROAD SPECTRUM ANTIBIOTICS” (priority 2015, published 2018).
Values after ≈ are worked out from the molar mass of the structure shown. Where two headings read alike, the source gives them in different places.

Key:
[1] = tested on: Methicillin Resistant Staphylococcus aureus strain USA 300, NRS384; experiment: Minimum inhibitory concentration, broth micro-dilution (CLSI), S. aureus; assay type: cell-based; conditions: Staphylococcus aureus, MRSA / NRS 384 / USA300, 22 h, 35° C., 22 hours
In short: (§1)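 CLSI broth microdilution in cation-adjusted Mueller Hinton Broth with 0.002% Tween-80; inoculum final OD600 0.0005, 22 hours at 35° C. Ten 2-fold dilutions starting at 4 μg/mL (protocol 2) or 0.5 μg/mL (protocol 3).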

[2] = tested on: Escherichia coli ATCC 25922; experiment: Minimum inhibitory concentration, broth micro-dilution (CLSI), E. coli; assay type: cell-based; conditions: Escherichia coli, ATCC25922, 22 h, 35° C., 22 hours
[3] = target: T1, SpsB (Staphylococcus aureus signal peptidase) (Staphylococcus aureus, UniProt P0A070); experiment: cell-based; assay type: biochemical; conditions: SpsB IC50, whole-cell S. aureus (USA300 background, overexpressing SpsB) as SpsB source; fluorogenic peptide substrate, kinetic read 30 min
T1 construct: This assay uses a suspension of Staphylococcus aureus cells as a source of SpsB instead of recombinant SpsB protein; endogenous in cells; host or cells: S. aureus, USA300 background, overexpressing SpsB (whole-cell suspension from frozen pellets)
In short: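 Whole S. aureus cells (USA300, overexpressing SpsB) in PBS with MgCl2, CaCl2 and 0.1% Tween-80 served as enzyme source, mixed with 20 μM stock of (Dabcyl)βAla-KPAKAAE(Edans) substrate before use. Fluorescence (ex 340/em 490 nm) read kinetically over 30 min. IC50 from reaction rate versus 11-point inhibitor concentration.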

[4] = tested on: Escherichia coli MC4100 harboring the IMP4213 (E. coli IMP); experiment: microbe, parasite or virus in culture; assay type: cell-based; conditions: Escherichia coli, 22 h, read-out: MIC (μg/mL) E. coli IMP, E. coli MC4100 IMP4213, increased outer-membrane permeability; 35° C., 22 hours
In short: as §1

[5] = MRSA USA 300 NRS384, read-out: MIC (μg/mL) S. aureus
[6] = E. coli ATCC 25922, read-out: MIC (μg/mL) E. coli

T1 sequence (P0A070 whole entry): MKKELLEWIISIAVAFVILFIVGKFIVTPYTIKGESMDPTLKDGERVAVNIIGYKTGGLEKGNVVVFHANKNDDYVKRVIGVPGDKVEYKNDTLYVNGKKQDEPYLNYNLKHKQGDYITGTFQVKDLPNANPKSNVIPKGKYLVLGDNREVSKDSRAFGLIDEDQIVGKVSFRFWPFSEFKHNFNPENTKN

SMILES	MIC [1, 5]	MIC [2, 6]	IC50 [3]	MIC [4]	MIC ([1]; read-out: MIC (μg/mL) S. aureus, MRSA USA 300 NRS384)	MIC ([2]; read-out: MIC (μg/mL) E. coli, E. coli ATCC 25922)
CCCCCCCCc1ccc(C(=O)N[C@@H](CCN)C(=O)N(C)[C@@H]2C(=O)N[C@@H](C)C(=O)N[C@H](C(=O)NCC#N)Cc3ccc(OCCN)c(c3)-c3cc2ccc3OCCN)c(O)c1 [Compound 193]	0.063 µg/mL (≈ 0.0724 µM)	0.5 µg/mL (≈ 0.575 µM)	0.93 nM	0.047 µg/mL (≈ 0.054 µM)		
CCCCCCCc1ccc(C(=O)N[C@@H](CCCN)C(=O)N(C)[C@@H]2C(=O)N[C@@H](C)C(=O)N[C@H](C(=O)NCC#N)Cc3ccc(OCCN)c(c3)-c3cc2ccc3OCCN)c(C)c1 [Compound 194]	0.016 µg/mL (≈ 0.0184 µM)	0.25 µg/mL (≈ 0.288 µM)	0.83 nM	0.0078 µg/mL (≈ 0.00899 µM)		
CCCCCCc1ccc(C(=O)N[C@@H](CCN)C(=O)N(C)[C@@H]2C(=O)N[C@@H](C)C(=O)N[C@H](C(=O)NCC#N)Cc3ccc(OCCN)c(c3)-c3cc2ccc3OCCN)cc1 [Compound 195]	0.063 µg/mL (≈ 0.0763 µM)	0.5 µg/mL (≈ 0.605 µM)	1.4 nM	0.0078 µg/mL (≈ 0.00944 µM)		
CCCCCc1ccc(C(=O)N[C@@H](CCN)C(=O)N(C)[C@@H]2C(=O)N[C@@H](C)C(=O)N[C@H](C(=O)NCC#N)Cc3ccc(OCCN)c(c3)-c3cc2ccc3OCCN)c(C)c1 [Compound 196]	0.094 µg/mL (≈ 0.114 µM)	0.67 µg/mL (≈ 0.811 µM)	1.1 nM	0.013 µg/mL (≈ 0.0157 µM)		
CCCCCCc1ccc(C(=O)N[C@@H](CCN)C(=O)N(C)[C@@H]2C(=O)N[C@@H](C)C(=O)N[C@H](C(=O)NCC#N)Cc3ccc(OCCN)c(c3)-c3cc2ccc3OCCN)c(C)c1 [Compound 197]	0.078 µg/mL (≈ 0.0929 µM)	0.31 µg/mL (≈ 0.369 µM)	< 0.5 nM	0.011 µg/mL (≈ 0.0131 µM)		
CCCCCCCc1ccc(C(=O)N[C@@H](CCN)C(=O)N(C)[C@@H]2C(=O)N[C@@H](C)C(=O)N[C@H](C(=O)NCC#N)Cc3ccc(OCCN)c(c3)-c3cc2ccc3OCCN)c(C)c1 [Compound 198]	0.063 µg/mL (≈ 0.0738 µM)	0.24 µg/mL (≈ 0.281 µM)	0.72 nM	0.018 µg/mL (≈ 0.0211 µM)		
CCCCCCc1ccc(C(=O)N[C@@H](CCCCN)C(=O)N(C)[C@@H]2C(=O)N[C@@H](C)C(=O)N[C@H](C(=O)NCC#N)Cc3ccc(OCCN)c(c3)-c3cc2ccc3OCCN)c(C)c1 [Compound 199]	0.031 µg/mL (≈ 0.0357 µM)	3 µg/mL (≈ 3.46 µM)	0.73 nM	0.031 µg/mL (≈ 0.0357 µM)		
CCCCCCc1ccc(C(=O)N[C@@H](CCN)C(=O)N(C)[C@@H]2C(=O)N[C@@H](C)C(=O)N[C@H](C(=O)NCC#N)Cc3ccc(OCCN)c(c3)-c3cc2ccc3OCCN)cn1 [Compound 201]	0.19 µg/mL (≈ 0.23 µM)	2 µg/mL (≈ 2.42 µM)	1.4 nM	0.031 µg/mL (≈ 0.0375 µM)		
CCCCCCCc1ccc(C(=O)N[C@@H](CN)C(=O)N(C)[C@@H]2C(=O)N[C@@H](C)C(=O)N[C@H](C(=O)NCC#N)Cc3ccc(OCCN)c(c3)-c3cc2ccc3OCCN)c(C)c1 [Compound 202]	0.031 µg/mL (≈ 0.0369 µM)	0.25 µg/mL (≈ 0.298 µM)	0.66 nM	0.016 µg/mL (≈ 0.019 µM)		
CCCCCCCc1cc(C)c(C(=O)N[C@@H](CCN)C(=O)N(C)[C@@H]2C(=O)N[C@@H](C)C(=O)N[C@H](C(=O)NCC#N)Cc3ccc(OCCN)c(c3)-c3cc2ccc3OCCN)cc1F [Compound 203]	0.031 µg/mL (≈ 0.0355 µM)	0.13 µg/mL (≈ 0.149 µM)	0.72 nM	0.012 µg/mL (≈ 0.0138 µM)		
Cc1cc(CCC2CCCCC2)ccc1C(=O)N[C@@H](CCN)C(=O)N(C)[C@@H]1C(=O)N[C@@H](C)C(=O)N[C@H](C(=O)NCC#N)Cc2ccc(OCCN)c(c2)-c2cc1ccc2OCCN [Compound 204]	0.031 µg/mL (≈ 0.0358 µM)	0.19 µg/mL (≈ 0.219 µM)	1.2 nM	0.0078 µg/mL (≈ 0.00901 µM)		
CCCCCCCc1cc(C)c(C(=O)N[C@@H](CCN)C(=O)N(C)[C@@H]2C(=O)N[C@@H](C)C(=O)N[C@H](C(=O)NCC#N)Cc3ccc(OCCN)c(c3)-c3cc2ccc3OCCN)c(Cl)c1 [Compound 205]	0.063 µg/mL (≈ 0.0709 µM)	0.25 µg/mL (≈ 0.281 µM)	0.85 nM	0.016 µg/mL (≈ 0.018 µM)		
CCCCc1ccc(C(=O)N[C@@H](CCN)C(=O)N(C)[C@@H]2C(=O)N[C@@H](C)C(=O)N[C@H](C(=O)NCC#N)Cc3ccc(OCCN)c(c3)-c3cc2ccc3OCCN)c(C)c1 [Compound 208]	0.25 µg/mL (≈ 0.308 µM)	1.3 µg/mL (≈ 1.6 µM)	0.99 nM	0.029 µg/mL (≈ 0.0357 µM)		
CCCCCCCCc1ccc(C(=O)N[C@@H](CCN)C(=O)N(C)[C@@H]2C(=O)N[C@@H](C)C(=O)N[C@H](C(=O)NCC#N)Cc3ccc(OCCN)c(c3)-c3cc2ccc3OCCN)c(OC)c1 [Compound 209]	0.19 µg/mL (≈ 0.215 µM)	2 µg/mL (≈ 2.26 µM)	0.92 nM	0.094 µg/mL (≈ 0.106 µM)		
CCCCCCCCc1ccc(C(=O)N[C@@H](CCN)C(=O)N(C)[C@@H]2C(=O)N[C@@H](C)C(=O)N[C@H](C(=O)NCC#N)Cc3ccc(OCCN)c(c3)-c3cc2ccc3OCCN)c(Cl)c1 [Compound 210]	0.094 µg/mL (≈ 0.106 µM)	0.11 µg/mL (≈ 0.124 µM)	0.8 nM	0.029 µg/mL (≈ 0.0326 µM)		
CCCCCCCCc1ccc(C(=O)N[C@@H](CCN)C(=O)N(C)[C@@H]2C(=O)N[C@@H](C)C(=O)N[C@H](C(=O)NCC#N)Cc3ccc(OCCN)c(c3)-c3cc2ccc3OCCN)c(S(C)(=O)=O)c1 [Compound 212]	0.031 µg/mL (≈ 0.0333 µM)	2 µg/mL (≈ 2.15 µM)	0.62 nM	0.047 µg/mL (≈ 0.0504 µM)		
CCCCCCCCc1nc(C)c(C(=O)N[C@@H](CCN)C(=O)N(C)[C@@H]2C(=O)N[C@@H](C)C(=O)N[C@H](C(=O)NCC#N)Cc3ccc(OCCN)c(c3)-c3cc2ccc3OCCN)s1 [Compound 213]	0.047 µg/mL (≈ 0.0537 µM)	2 µg/mL (≈ 2.29 µM)	0.64 nM	0.023 µg/mL (≈ 0.0263 µM)		
Cc1cc(C2CCC2)ccc1C(=O)N[C@@H](CCN)C(=O)N(C)[C@@H]1C(=O)N[C@@H](C)C(=O)N[C@H](C(=O)NCC#N)Cc2ccc(OCCN)c(c2)-c2cc1ccc2OCCN [Compound 214]	0.25 µg/mL (≈ 0.309 µM)	3 µg/mL (≈ 3.7 µM)	0.98 nM	0.031 µg/mL (≈ 0.0383 µM)		
Cc1cc(C2CCCC2)ccc1C(=O)N[C@@H](CCN)C(=O)N(C)[C@@H]1C(=O)N[C@@H](C)C(=O)N[C@H](C(=O)NCC#N)Cc2ccc(OCCN)c(c2)-c2cc1ccc2OCCN [Compound 215]	0.19 µg/mL (≈ 0.231 µM)	1.8 µg/mL (≈ 2.18 µM)	0.97 nM	0.039 µg/mL (≈ 0.0473 µM)		
Cc1cc(C2CC2)ccc1C(=O)N[C@@H](CCN)C(=O)N(C)[C@@H]1C(=O)N[C@@H](C)C(=O)N[C@H](C(=O)NCC#N)Cc2ccc(OCCN)c(c2)-c2cc1ccc2OCCN [Compound 216]	1 µg/mL (≈ 1.26 µM)	8 µg/mL (≈ 10.1 µM)	3.3 nM	0.25 µg/mL (≈ 0.314 µM)		
Cc1cc(CCC(C)C)ccc1C(=O)N[C@@H](CCN)C(=O)N(C)[C@@H]1C(=O)N[C@@H](C)C(=O)N[C@H](C(=O)NCC#N)Cc2ccc(OCCN)c(c2)-c2cc1ccc2OCCN [Compound 217]	0.094 µg/mL (≈ 0.114 µM)	0.5 µg/mL (≈ 0.605 µM)	0.88 nM	0.016 µg/mL (≈ 0.0194 µM)		
Cc1cc(CC(C)C)ccc1C(=O)N[C@@H](CCN)C(=O)N(C)[C@@H]1C(=O)N[C@@H](C)C(=O)N[C@H](C(=O)NCC#N)Cc2ccc(OCCN)c(c2)-c2cc1ccc2OCCN [Compound 218]	0.25 µg/mL (≈ 0.308 µM)	2 µg/mL (≈ 2.46 µM)	0.88 nM	0.031 µg/mL (≈ 0.0382 µM)		
Cc1cc(CC(C)(C)C)ccc1C(=O)N[C@@H](CCN)C(=O)N(C)[C@@H]1C(=O)N[C@@H](C)C(=O)N[C@H](C(=O)NCC#N)Cc2ccc(OCCN)c(c2)-c2cc1ccc2OCCN [Compound 219]	0.19 µg/mL (≈ 0.23 µM)	1.5 µg/mL (≈ 1.82 µM)	1.9 nM	0.023 µg/mL (≈ 0.0278 µM)		
C[C@@H]1NC(=O)[C@@H](N(C)C(=O)[C@H](CCN)NC(=O)c2ccc(C(C)(C)C)cc2C(F)F)c2ccc(OCCN)c(c2)-c2cc(ccc2OCCN)C[C@@H](C(=O)NCC#N)NC1=O [Compound 220]			1.5 nM	0.047 µg/mL (≈ 0.0554 µM)	0.25 µg/mL (≈ 0.295 µM)	2.5 µg/mL (≈ 2.95 µM)
CCCCCCCCc1ccc(C(=O)N[C@@H](CCN)C(=O)N(C)[C@@H]2C(=O)N[C@@H](C)C(=O)N[C@H](C(=O)NCC#N)Cc3ccc(OCCN)c(c3)-c3cc2ccc3OCCN)c(C(F)F)c1 [Compound 221]	0.063 µg/mL (≈ 0.0697 µM)	0.19 µg/mL (≈ 0.21 µM)	1.3 nM	0.023 µg/mL (≈ 0.0254 µM)		
CCCCCCCCc1ccc(C(=O)N[C@@H](CCN)C(=O)N(C)[C@@H]2C(=O)N[C@@H](C)C(=O)N[C@H](C(=O)NCC#N)Cc3ccc(OCCN)c(c3)-c3cc2ccc3OCCN)c(N)c1 [Compound 223]	0.031 µg/mL (≈ 0.0357 µM)	0.25 µg/mL (≈ 0.288 µM)	1.5 nM	0.016 µg/mL (≈ 0.0184 µM)		
CCCCCCCc1cc(Cl)c(C(=O)N[C@@H](CCN)C(=O)N(C)[C@@H]2C(=O)N[C@@H](C)C(=O)N[C@H](C(=O)NCC#N)Cc3ccc(OCCN)c(c3)-c3cc2ccc3OCCN)c(Cl)c1 [Compound 226]	0.094 µg/mL (≈ 0.103 µM)	0.38 µg/mL (≈ 0.418 µM)	0.88 nM	0.012 µg/mL (≈ 0.0132 µM)		
CCCCc1ccc(C(=O)N[C@@H](CCN)C(=O)N(C)[C@@H]2C(=O)N[C@@H](C)C(=O)N[C@H](C(=O)NCC#N)Cc3ccc(OCCN)c(c3)-c3cc2ccc3OCCN)cn1 [Compound 227]	1.5 µg/mL (≈ 1.88 µM)	16 µg/mL (≈ 20 µM)	5.5 nM	0.38 µg/mL (≈ 0.476 µM)		
